Data on twelve compounds can be found in patent US20230331803A1, “CO-AGONISTS OF THE GLP-1 AND AMYLIN RECEPTORS” (priority 2020, published 2023).

Starred links: 1 amine or outer side, 2 acyl side, 3 side chain; linkers in the order of their positions; H or OH if unused. Non-standard residues stand in square brackets, D forms with d. Groups on a side chain read outwards from the residue. *: point of attachment. Butyryl(4-SO2NHCO(CH2)16Tz) = O=C(CCCCCCCCCCCCCCCCc1nnn[nH]1)NS(=O)(=O)CCCC(=O)*; Decanoyl(10-O(3-COOH-Ph)) = O=C(O)c1cccc(OCCCCCCCCCC(=O)*)c1; C20 diacid = O=C(O)CCCCCCCCCCCCCCCCCCC(=O)*; C18 diacid = O=C(O)CCCCCCCCCCCCCCCCC(=O)*; C16 diacid = O=C(O)CCCCCCCCCCCCCCC(=O)*; γGlu = O=C(O)[C@H](CCC(=O)[*:2])N[*:1]; εLys = N[C@@H](CCCCN[*:1])C(=O)[*:2]; Trx = NC[C@H]1CC[C@H](C(=O)O)CC1; AEEA = NCCOCCOCC(=O)O; Aib = CC(C)(N)C(=O)O

One series has as its target T1, human GLP-1 receptor (Homo sapiens, UniProt P43220).
T1 construct: expressed in transfected cells; host or cells: BHK (Baby Hamster Kidney) cells, clone BHK 467-12A KZ-10, stably transfected, with CRE-luciferase reporter
Nature of the series: Human GLP-1 receptor in vitro potency assay (CRE-luciferase reporter, BHK cells). It is filed as cell-based. As to conditions: Table 4a; BHK cells expressing human GLP-1R, CRE-Luc, 3 hours; read-out: Human GLP-1R potency [EC50 (pM)].

Series [1] addresses T2, human amylin receptor (hAmyR3) (Homo sapiens, UniProt O60896+P30988).
T2 construct: host or cells: BHK cells (Hollex-1 line: human calcitonin receptor (a) + CRE-Luc), further transfected with human RAMP3
Nature of the series: Human amylin receptor in vitro potency assay (CRE-luciferase reporter, BHK cells).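 Also: BHK cells expressing human calcitonin receptor plus RAMP3 (amylin-3 receptor) with a CRE-luciferase reporter, agonist activity read as luminescence from cAMP-driven transcription, 7-point serial dilutions.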 It is filed as cell-based. The following applies: Table 4a; BHK hAmyR3/CRE-Luc cells, 3 hours; read-out: Human AmyR3 potency [EC50 (pM)].

Series [2] can be described thus: Pharmacokinetic studies in Beagle dogs after oral administration of SNAC-based tablets. It is filed as in vivo. The following applies: dogs, oral administration (tablet). As to the method:
To be able to evaluate oral exposure following tablet dosing, tablet compositions comprising the test substance and SNAC (sodium N-(8-(2-hydroxybenzoyl)amino)caprylate) were prepared by mixing test substance with roller compacted SNAC and magnesium stearate as, e.g., described in WO 2019/149880. The amount of SNAC in the tablet composition was 100-300 mg, the amount of magnesium stearate in the tablet composition was 7.7 mg, and the target amount of each test substance in the tablet composition was 3-4 mg.
Pharmacokinetic (PK) studies in Beagle dogs were conducted to determine the exposure of the GLP-1 receptor-amylin receptor co-agonist after peroral administration.
For the pharmacokinetic studies male Beagle dogs were used, 2-7, or 1 to 5, years of age and weighing approximately 10-15, such as 10-12, kg at the start of the studies. The dogs were group housed in pens (12 hours light: 12 hours dark),and fed individually and restrictedly once daily with Royal Canin Medium Adult dog (Royal Canin Products, China Branch, or Brogaarden A/S, Denmark). Exercise and group social were permitted daily, whenever possible. The dogs were used for repeated pharmacokinetic studies with a suitable wash-out period between successive dosing. An appropriate acclimatisation period was given prior to initiation of the first pharmacokinetic study. All handling, dosing and blood sampling of the animals were performed by trained and skilled staff. Before the studies the dogs were fasted overnight and from 0 to 4 h after dosing. Besides, the dogs were restricted to water 1 hour before dosing until 4 hours after dosing, but otherwise have ad libitum access to water during the whole period.
The tablets used for the p.o. studies described herein were immediate release SNAC-based tablets dosed orally.
The tablets were administered in the following manner: 10 min prior to tablet administration the dogs may be dosed subcutaneously with approximately 3 nmol/kg of SEQ ID NO: 237, tablets were placed in the back of the mouth of the dog to prevent chewing. The mouth was then closed, and 10 mL of tap water was given by a syringe or gavage to facilitate swallowing of the tablet.
Blood was sampled at predefined time points for up till 240 hours, such as up till 10 hr, post dosing to adequately cover the full plasma concentration-time absorption profile of the GLP-1 agonist.
For each blood sampling time point approximately 0.8 mL of whole blood was collected in a 1.5 mL EDTA coated tube, and the tube was gently turned to allowing mixing of the sample with the EDTA. Blood samples (for example 0.8 mL) were collected in EDTA buffer (8 mM) and then centrifuged at 4° C. and 2000 G for 10 minutes. Plasma was pipetted into Micronic tubes on dry ice, and kept at -20° C. until analysis.
Blood samples were taken as appropriate, for example from a venflon in the cephalic vein in the front leg for the first 2 hours and then with syringe from the jugular vein for the rest of the time points (the first few drops were allowed to drain from the venflon to avoid heparin saline from the venflon in the sample).
Plasma concentration of the GLP-1 receptor-amylin receptor co-agonists were determined using LCMS. Individual plasma concentration-time profiles were analysed by a non-compartmental model in WinNonlin v. 5.0 or Phoenix v. 6.2 or 6.3 (Pharsight Inc., Mountain View, CA, USA), or other relevant software for PK analysis.
The individual plasma concentration-time profiles were analysed by non-compartmental analysis (NCA).

What is called EC50 is the concentration giving half of the maximal effect. The Tmax is the time at which the peak concentration occurs.

T1 sequence (P43220 24-463): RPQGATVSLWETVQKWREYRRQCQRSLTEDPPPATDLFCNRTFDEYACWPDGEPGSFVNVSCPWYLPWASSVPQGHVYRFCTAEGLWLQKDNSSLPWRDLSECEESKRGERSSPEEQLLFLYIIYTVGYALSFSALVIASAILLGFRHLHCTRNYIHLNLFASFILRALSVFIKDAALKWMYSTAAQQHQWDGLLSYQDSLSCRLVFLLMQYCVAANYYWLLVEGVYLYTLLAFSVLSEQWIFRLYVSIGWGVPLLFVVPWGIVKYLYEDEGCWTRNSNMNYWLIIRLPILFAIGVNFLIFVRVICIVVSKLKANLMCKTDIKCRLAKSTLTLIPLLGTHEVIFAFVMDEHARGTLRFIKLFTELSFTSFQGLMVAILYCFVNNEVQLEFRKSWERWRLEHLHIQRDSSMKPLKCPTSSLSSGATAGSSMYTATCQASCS
T2 sequence (P30988 25-474): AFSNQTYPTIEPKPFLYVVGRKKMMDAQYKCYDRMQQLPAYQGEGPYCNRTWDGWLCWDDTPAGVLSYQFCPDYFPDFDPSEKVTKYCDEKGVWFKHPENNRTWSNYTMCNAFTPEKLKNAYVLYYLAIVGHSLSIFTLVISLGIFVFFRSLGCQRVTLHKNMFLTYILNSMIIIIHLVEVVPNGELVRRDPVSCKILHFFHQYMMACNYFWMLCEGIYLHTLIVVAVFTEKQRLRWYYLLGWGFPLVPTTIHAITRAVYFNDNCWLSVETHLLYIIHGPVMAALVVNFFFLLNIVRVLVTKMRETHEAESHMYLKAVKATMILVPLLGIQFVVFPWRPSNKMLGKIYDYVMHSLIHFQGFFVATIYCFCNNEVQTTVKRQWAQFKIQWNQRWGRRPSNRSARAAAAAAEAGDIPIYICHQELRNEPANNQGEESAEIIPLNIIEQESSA
T2 sequence (O60896 24-148): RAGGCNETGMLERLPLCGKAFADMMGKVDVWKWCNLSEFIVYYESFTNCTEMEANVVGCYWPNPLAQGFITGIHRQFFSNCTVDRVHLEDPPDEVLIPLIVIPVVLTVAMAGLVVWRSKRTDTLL

As for “H-H[Aib]EGTFTSDVSSYLEEQAAREFIAWLVRGK([AEEA-AEEA-γGlu-Decanoyl(10-O(3-COOH-Ph))])K([AEEA-AEEA-γGlu-Decanoyl(10-O(3-COOH-Ph))])GGGGASELSTAALGRLSAELHELATLPRTETGSGSP-NH2 [Compound 0235]”, on human GLP-1 receptor, the concentration for a half-maximal effect (EC50) turned out to be 10.4 pM. Further, the EC50 in series [1] is 24 pM. In addition, in series [2], the “AUC/D” value turned out to be 3.3 kg·h/L and the “Cmax/D” value came out at 0.22 kg/L. For the same compound, in series [2] (male, Beagle, dog, plasma, po, read-out: Tmax), the time of peak concentration (Tmax) is 1 h. Moreover, in series [2] (male, Beagle, dog, plasma, po, read-out: T½ (converted)), the half-life is 21 h.

Regarding `CC[C@H](C)[C@H](NC(=O)[C@H](Cc1ccccc1)NC(=O)[C@H](CCC(=O)O)NC(=O)[C@H](CCCNC(=N)N)NC(=O)[C@H](C)NC(=O)[C@H](C)NC(=O)[C@H](CCC(N)=O)NC(=O)[C@H](CCC(=O)O)NC(=O)[C@H](CCC(=O)O)NC(=O)[C@H](CC(C)C)NC(=O)[C@H](Cc1ccc(O)cc1)NC(=O)[C@H](CO)NC(=O)[C@H](CO)NC(=O)[C@H](CCCCNC(=O)COCCOCCNC(=O)COCCOCCNC(=O)CC[C@H](NC(=O)[C@H]1CC[C@H](CNC(=O)CCCCCCCCCCCCCCCCCCC(=O)O)CC1)C(=O)O)NC(=O)[C@H](CC(=O)O)NC(=O)[C@H](CO)NC(=O)[C@@H](NC(=O)[C@H](Cc1ccccc1)NC(=O)[C@@H](NC(=O)CNC(=O)[C@H](CCC(=O)O)NC(=O)C(C)(C)NC(=O)[C@@H](N)Cc1c[nH]cn1)[C@@H](C)O)[C@@H](C)O)C(=O)N[C@@H](C)C(=O)N[C@@H](Cc1c[nH]c2ccccc12)C(=O)N[C@@H](CC(C)C)C(=O)N[C@H](C(=O)N[C@@H](CCCNC(=N)N)C(=O)NCC(=O)N[C@@H](CCCNC(=N)N)C(=O)NCC(=O)NCC(=O)NCC(=O)NCC(=O)N[C@@H](CCC(=O)O)C(=O)N[C@@H](C)C(=O)N[C@@H](CO)C(=O)N[C@@H](CCC(=O)O)C(=O)N[C@@H](CC(C)C)C(=O)N[C@@H](CO)C(=O)N[C@H](C(=O)N[C@@H](C)C(=O)N[C@@H](C)C(=O)N[C@@H](CC(C)C)C(=O)NCC(=O)N[C@@H](CCCNC(=N)N)C(=O)N[C@@H](CC(C)C)C(=O)N[C@@H](CO)C(=O)N[C@@H](C)C(=O)N[C@@H](CCC(=O)O)C(=O)N[C@@H](CC(C)C)C(=O)N[C@@H](Cc1c[nH]cn1)C(=O)N[C@@H](CCC(=O)O)C(=O)N[C@@H](CC(C)C)C(=O)N[C@@H](C)C(=O)N[C@H](C(=O)N[C@@H](CC(C)C)C(=O)N1CCC[C@H]1C(=O)N[C@@H](CCCNC(=N)N)C(=O)N[C@H](C(=O)N[C@@H](CCC(=O)O)C(=O)N[C@H](C(=O)NCC(=O)N[C@@H](CO)C(=O)NCC(=O)N[C@@H](CO)C(=O)N1CCC[C@H]1C(N)=O)[C@@H](C)O)[C@@H](C)O)[C@@H](C)O)[C@@H](C)O)C(C)C` [Compound 0266], the EC50 stood at 6.3 pM at human GLP-1 receptor and 8.5 pM in series [1].

With `CC[C@H](C)[C@H](NC(=O)[C@H](Cc1ccccc1)NC(=O)[C@H](CCC(=O)O)NC(=O)[C@H](CCCNC(=N)N)NC(=O)[C@H](C)NC(=O)[C@H](C)NC(=O)[C@H](CCC(N)=O)NC(=O)[C@H](CCC(=O)O)NC(=O)[C@H](CCC(=O)O)NC(=O)[C@H](CC(C)C)NC(=O)[C@H](Cc1ccc(O)cc1)NC(=O)[C@H](CO)NC(=O)[C@H](CO)NC(=O)[C@@H](NC(=O)[C@H](CC(=O)O)NC(=O)[C@H](CO)NC(=O)[C@@H](NC(=O)[C@H](Cc1ccccc1)NC(=O)[C@@H](NC(=O)CNC(=O)[C@H](CCC(=O)O)NC(=O)C(C)(C)NC(=O)CCc1c[nH]cn1)[C@@H](C)O)[C@@H](C)O)C(C)C)C(=O)N[C@@H](C)C(=O)N[C@@H](Cc1c[nH]c2ccccc12)C(=O)N[C@@H](CC(C)C)C(=O)N[C@H](C(=O)N[C@@H](CCCNC(=N)N)C(=O)NCC(=O)N[C@@H](CCCNC(=N)N)C(=O)N[C@@H](CCCCNC(=O)CCCS(=O)(=O)NC(=O)CCCCCCCCCCCCCCCCc1nnn[nH]1)C(=O)N[C@@H](CCC(=O)O)C(=O)N[C@@H](C)C(=O)N[C@@H](CO)C(=O)N[C@@H](CCC(=O)O)C(=O)N[C@@H](CC(C)C)C(=O)N[C@@H](CO)C(=O)N[C@H](C(=O)N[C@@H](C)C(=O)N[C@@H](C)C(=O)N[C@@H](CC(C)C)C(=O)NCC(=O)N[C@@H](CCCNC(=N)N)C(=O)N[C@@H](CC(C)C)C(=O)N[C@@H](CO)C(=O)N[C@@H](C)C(=O)N[C@@H](CCC(=O)O)C(=O)N[C@@H](CC(C)C)C(=O)N[C@@H](Cc1c[nH]cn1)C(=O)N[C@@H](CCC(=O)O)C(=O)N[C@@H](CC(C)C)C(=O)N[C@@H](C)C(=O)N[C@H](C(=O)N[C@@H](CC(C)C)C(=O)N1CCC[C@H]1C(=O)N[C@@H](CCCNC(=N)N)C(=O)N[C@H](C(=O)N[C@@H](CCC(=O)O)C(=O)N[C@H](C(=O)NCC(=O)N[C@@H](CO)C(=O)NCC(=O)N[C@@H](CO)C(=O)N1CCC[C@H]1C(N)=O)[C@@H](C)O)[C@@H](C)O)[C@@H](C)O)[C@@H](C)O)C(C)C` [Compound 0124], the EC50 at human GLP-1 receptor came out at 27.9 pM; in series [1], 24.4 pM.

In the case of “H-H[Aib]EGTFTSDVSSYLEEQAARK([AEEA-AEEA-γGlu-C16 diacid])FIAWLVK([AEEA-AEEA-γGlu-C16 diacid])GRGGGEASELSTAALGRLSAELHELATLPRTETGSGSP-NH2 [Compound 0077]”, the EC50 at human GLP-1 receptor was determined as 2.1 pM; in series [1] it was 25.7 pM.

For “H-H[Aib]EGTFTSDVSSYLEEK([AEEA-AEEA-γGlu-C16 diacid])AAREFIAWLVRGRGGGGGEASELSTAALGRLSAELHK([AEEA-AEEA-γGlu-C16 diacid])LATLPRTETGSGSP-NH2 [Compound 0299]”, the concentration for a half-maximal effect (EC50) at human GLP-1 receptor was determined as 6 pM; in series [1], 11.5 pM.

As for “HAEGTFTSDVSSYLEEK([AEEA-AEEA-γGlu-C18 diacid])AAREFIEWLVRGRGEASELSTAALGRLSAELHELATLPRTETGSGSP-NH2 [Compound 0472]”, the concentration for a half-maximal effect (EC50) is 2.8 pM on human GLP-1 receptor and 24 pM in series [1].

As for “H-H[Aib]EGTFTSDVSSYLEEK([AEEA-AEEA-γGlu-C16 diacid])AAREFIAWLVRGRGGGGGASELSTAALGRLSK([AEEA-AEEA-γGlu-C16 diacid])ELHELATLPRTETGSGSP-NH2 [Compound 0295]”, the values for the EC50 (at human GLP-1 receptor; in series [1]) were 4.8 pM and 32.7 pM, respectively.

Turning to “H-H[Aib]EGTFTSDVSSYLEEQAARK([γGlu-γGlu-γGlu-γGlu-C20 diacid])FIAWLVRGRGGGGGEASELSTAALGRLSAELHELATLPRTETGSGSP-NH2 [Compound 0633]”, the concentration giving a half-maximal response (EC50) was found to be 28.2 pM at human GLP-1 receptor and 5.3 pM in series [1].

Turning to “H-HWEGTFTSDVSSYLEEQAARK([εLys-AEEA-AEEA-γGlu-Trx-C20 diacid])FIEWLVRGRGEASELSTAALGRLSAELHELATLPRTETGSGSP-NH2 [Compound 0437]”, the EC50 at human GLP-1 receptor is 12 pM; in series [1], 11.8 pM.

“H-H[Aib]EGTFTSDVSSYLEEQAAREFIAWLVRGRGK(Butyryl(4-SO2NHCO(CH2)16Tz))GGGASELSTAALGRLSAELHELATLPRTETGSGSP-NH2 [Compound 0145]”: the concentration for a half-maximal effect (EC50) on human GLP-1 receptor was determined as 11.9 pM; in series [1], 16.5 pM.

As for “H-H[Aib]EGTFTSDVSSYLEEQAAREFIAWLVRGK([AEEA-AEEA-γGlu-C16 diacid])GGGGGEASELSTAALGRLSAELHK([AEEA-AEEA-γGlu-C16 diacid])LATLPRTETGSGSP-NH2 [Compound 0280]”, the EC50 came to 34.3 pM at human GLP-1 receptor and 18 pM in series [1].

Consider “H-HAEGTFTSDVSSYLEEK([AEEA-AEEA-γGlu-Trx-C20 diacid])AAREFIEWLVRGRGEASELSTAALGRLSAELHELATLPRTETGSGSP-NH2 [Compound 0414]”, for which the EC50 at human GLP-1 receptor came out at 11.2 pM; in series [1] it was 17.7 pM.
